Test results taken from publication PMC7251123, “CX-5461 activates the DNA damage response and demonstrates therapeutic efficacy in high-grade serous ovarian cancer” (Nature Communications, 2020).

How the values were obtained:
[1] = system: G-quadruplex DNA (GQ) structures; experiment: Immunofluorescence of GQ DNA (1H6 antibody); assay type: cell-based, human; conditions: OVCAR8, OVCAR4 and OVCAR8 RAD51C KO cells; 1 h, 3 h and 24 h post-treatment; 1 μM
Protocol: To examine the mechanism of activation of ATM/ATR signalling, we investigated the effects of CX-5461 treatment on the formation of GQ structures in OVCAR8, OVCAR8 RAD51C KO and OVCAR4 cells (Fig. 4a, b and Supplementary Fig. 4A–D).
Fig. 4 CX-5461 induces R-loops stabilization in HR-proficient OVCAR8 cells. a Co-immunofluorescence (Co-IF) of GQ DNA and UBF as a nucleolar marker in OVCAR8 cells and OVCAR8 RAD51C KO cells treated with either vehicle, 1 μM CX-5461 or 10 μM TMPyP4 for 3 h. Representative images of three biologically independent experiments. b Quantitation of GQ DNA immunofluorescence. Signal intensities were analyzed using CellProfiler. […] Representative images of two biologically independent experiments. d Quantitation of R-loops signal intensity was performed using CellProfiler. n = 230 cells per treatment condition were examined over two independent experiments. […] RNA was extracted and 47S rRNA precursor levels were determined using primers specific to the 5’ETS of pre-rRNA. Expression levels were normalized to NONO mRNA and expressed as a fold change relative to vehicle (n = 3 biologically independent experiments), error bars represent mean ± SEM, statistical analysis was performed using a two-sided one-way ANOVA, Tukey’s multiple comparisons test (adjusted p-values are shown). […]

[2] = design: method as in PMID 31092402; conditions: Phase I CX-5461 dose escalation study ref 16; cited from earlier work

For `Cc1cnc(CNC(=O)c2c(=O)c3ccc(N4CCCN(C)CC4)nc3n3c2sc2ccccc23)cn1` [CX-5461], the GQ stabilization [1] is given as “did not induce GQ stabilization” and the “plasma concentrations range, lower end” value [2] is given as 584.1 nM.
